Usually GI50 stands for the concentration that inhibits growth by half. By TGI is commonly meant the concentration giving total growth inhibition. Higher therefore signals less potent growth arrest. As a reminder, the LC50 is the concentration lethal to half of the exposed cells or organisms. Low readings indicate greater toxicity, high ones lower toxicity.

Holding throughout (type): functional
In assay [1] the test system is TK-10. Description: Growth inhibition of human TK10 cells at 10 uM. To be noted: read-out: GI.
The test system of assay [2] is UO-31. Description: Growth inhibition of human UO31 cells at 10 uM. To be noted: read-out: GI.
Assay [3] is described as follows: Growth inhibition of human NCI60 cells.
Assay [4] deals with K562. Nature of the assay: Growth inhibition of human K562 cells. To be noted: for CC50: read-out: LC50 (the source's name).
Assay [5] has as its system HOP-92. Nature of the assay: Growth inhibition of human HOP92 cells. To be noted: for CC50: read-out: LC50 (the source's name).
In assay [6] the test system is NCI-H226. Nature of the assay: Growth inhibition of human NCI-H226 cells.
The test system of assay [7] is NCI-H460. Description: Growth inhibition of human NCI-H460 cells.
In assay [8] the test system is COLO 205. Description: Growth inhibition of human COLO205 cells. To be noted: for CC50: read-out: LC50 (the source's name).
The test system of assay [9] is SF-295. Nature of the assay: Growth inhibition of human SF295 cells. The note with it: for CC50: read-out: LC50 (the source's name).
The subject of assay [10] is SK-MEL-2. Nature of the assay: Growth inhibition of human SK-MEL-2 cells. The note with it: for CC50: read-out: LC50 (the source's name).
Assay [11] has as its system UACC-62. Description: Growth inhibition of human UACC62 cells.
Assay [12] concerns IGROV-1. Nature of the assay: Growth inhibition of human IGROV1 cells. The note with it: for CC50: read-out: LC50 (the source's name).
Assay [13] relates to OVCAR-4. Description: Growth inhibition of human OVCAR4 cells. To be noted: for CC50: read-out: LC50 (the source's name).
For assay [14], the system named is OVCAR-5. Description: Growth inhibition of human OVCAR5 cells. To be noted: for CC50: read-out: LC50 (the source's name).
For assay [15], the system named is A498. Nature of the assay: Growth inhibition of human A498 cells. To be noted: for CC50: read-out: LC50 (the source's name).
For assay [16], the system named is CAKI-1. Nature of the assay: Growth inhibition of human Caki1 cells.
The subject of assay [17] is TK-10. Description: Growth inhibition of human TK10 cells. The note with it: for CC50: read-out: LC50 (the source's name).
Assay [18] concerns T47D. Nature of the assay: Growth inhibition of human T47D cells. To be noted: for CC50: read-out: LC50 (the source's name).
Assay [19] relates to MDA-MB-468. Nature of the assay: Growth inhibition of human MDA-MB-468 cells. The note with it: for CC50: read-out: LC50 (the source's name).
Assay [20] relates to RXF 393. Nature of the assay: Growth inhibition of human RXF393 cells at 10 uM. The note with it: read-out: GI.

Take `O=C1NC(=O)C(=Cc2cn(Cc3ccccc3)c3ccccc23)C(=O)N1`: the inhibition of growth at 10 µM in assay [1] is 71%; in assay [2] it was 29%. The GI50 is 7.5 µM in assay [3]; 3.1 µM in assay [4]; 1.5 µM in assay [5]; 5.4 µM in [6]; 0.3 µM in [7]; 1.4 µM in assay [8]. In addition, the GI50 stood at 3.3 µM in [9]; 2.9 µM in [10]; 1.6 µM in assay [11]; 0.48 µM in assay [12]; 2 µM in [13]; 0.3 µM in [14]. Moreover, the GI50 in assay [15] stood at 0.03 µM; in assay [16], 4.6 µM; in assay [17] it was 2 µM; in [18], 4.5 µM; in assay [19] it was 0.1 µM. Moreover, the TGI in assay [4] came to 23 µM; in assay [5], 15 µM; in [6], 28 µM; in [7] it was 16.5 µM; in [8], 10.9 µM; in assay [9] it was 70.7 µM. In addition, the TGI was 23.4 µM in assay [10]; 16.5 µM in assay [11]; 10.4 µM in assay [12]; 44 µM in assay [13]; 3.8 µM in assay [14]; 0.26 µM in [15]. Further, the TGI worked out at 25.7 µM in assay [16], 8.3 µM in [17], 22.3 µM in assay [18] and 0.38 µM in [19]. In addition, the CC50 in assay [4] was greater than 100 µM; in assay [5], 58.8 µM; in [8] it was 41.6 µM; in assay [9], greater than 100 µM; in assay [10] it was greater than 100 µM; in assay [12], 63 µM. For the same compound, the CC50 in [13] was greater than 100 µM; in [14], 39.8 µM; in assay [15], 1.09 µM; in [17], greater than 100 µM; in [18], 95 µM; in assay [19], greater than 100 µM. Also, the LC50 was greater than 100 µM in assay [6], 63 µM in assay [7], greater than 100 µM in assay [11] and 93 µM in [16].
For the compound `CN1C(=O)C(=Cc2cn(Cc3ccccc3)c3ccccc23)C(=O)N(C)C1=O`, the figures for the inhibition of growth at 10 µM in assay [1], in assay [2] and in assay [20] were 95%, 36% and 43%, respectively. In addition, the GI50 in assay [3] was determined as 13.8 µM; in assay [4], 4.3 µM; in assay [5], 8.3 µM; in assay [6] it was 3.4 µM; in [7] it was 4.1 µM; in [8] it was 0.7 µM. The GI50 amounted to 1.1 µM in assay [9]; 3 µM in [10]; 1 µM in assay [11]; 0.06 µM in [12]; 6.1 µM in assay [13]; 0.1 µM in assay [14]. Further, the GI50 in [15] was 0.2 µM; in [16], 0.5 µM; in assay [17], 3.1 µM; in assay [18], 5 µM; in assay [19] it was 0.02 µM. For the same compound, the TGI is greater than 100 µM in [4]; 50 µM in [5]; 27 µM in assay [6]; greater than 100 µM in [7]; 9.1 µM in assay [8]; greater than 100 µM in assay [9]. Also, the TGI was 45.7 µM in assay [10]; 12.5 µM in [11]; 0.26 µM in assay [12]; greater than 100 µM in [13]; 0.67 µM in assay [14]; 0.64 µM in assay [15]. The TGI in assay [16] was 6.4 µM; in assay [17] it was 57.5 µM; in assay [18] it was greater than 100 µM; in assay [19], 0.06 µM. Further, the CC50 in [4] is greater than 100 µM; in assay [5] it was greater than 100 µM; in assay [8], greater than 100 µM; in [9], greater than 100 µM; in [10], greater than 100 µM; in assay [12], 0.85 µM. Also, the CC50 in assay [13] was greater than 100 µM; in assay [14] it was greater than 100 µM; in assay [15] it was 2.29 µM; in assay [17], greater than 100 µM; in assay [18], greater than 100 µM; in assay [19], 0.69 µM. For the same compound, the LC50 in assay [6], in assay [7], in assay [11] and in assay [16] was greater than 100 µM each time.
Regarding `Cc1ccc(S(=O)(=O)n2cc(C=C3C(=O)N(C)C(=O)N(C)C3=O)c3ccccc32)cc1`, the inhibition of growth at 10 µM in assay [2] was 41%; in assay [20], 52%.
Consider `O=C1NC(=O)C(=Cc2c[nH]c3ccccc23)C(=O)N1`, for which the inhibition of growth at 10 µM in assay [2] was 39%.
Regarding `CN1C(=O)C(=Cc2cn(C(=O)c3ccccc3)c3ccccc23)C(=O)N(C)C1=O`, the inhibition of growth at 10 µM in [2] was 36%; in [20] it was 55%.
The matching figures for `O=C1NC(=O)C(=Cc2cn(C(=O)c3ccccc3)c3ccccc23)C(=O)N1`: 36% and 55%.
Regarding `COc1ccc2c(c1)c(CC(=O)O)c(C)n2C(=O)c1ccc(Cl)cc1` [INDOMETHACIN], it took 64.3 µM to inhibit growth in assay [3] by half (GI50).
With `Cc1ccc(S(=O)(=O)n2cc(C=C3C(=O)NC(=O)NC3=O)c3ccccc32)cc1`, the inhibition of growth at 10 µM in assay [2] amounted to 32%.
As for `O=C1NC(=O)C(=Cc2cn(C(=O)c3ccc(Cl)cc3)c3ccccc23)C(=O)N1`, in [2], the inhibition of growth at 10 µM worked out at 22%.
As to `CN1C(=O)C(=Cc2cn(C(=O)c3ccc(Cl)cc3)c3ccccc23)C(=O)N(C)C1=O`, the inhibition of growth at 10 µM in [20] was 33%.
Compound `O=c1[nH]cc(F)c(=O)[nH]1` [FLUOROURACIL] registered a GI50 in assay [3] of 17.7 µM.
With `CN1C(=O)C(=Cc2c[nH]c3ccccc23)C(=O)N(C)C1=O`, the inhibition of growth at 10 µM in assay [2] was determined as 33%.
